≈ marks a conversion by molar mass, not a printed value.
Key:
Assay type in all cases: functional
[1] = test system: Klebsiella pneumoniae; experiment: Antimicrobial activity against carbapenemases KPC-producing Klebsiella pneumoniae VA-406 infected in sc dosed CD-1 mouse in presence of 1 ug/ml NXL104 beta-lactamase inhibitor
[2] = test system: Klebsiella pneumoniae; experiment: Antimicrobial activity against carbapenemases KPC-producing Klebsiella pneumoniae VA-406 infected in sc dosed CD-1 mouse in presence of 4 ug/ml NXL104 beta-lactamase inhibitor
[3] = test system: Klebsiella pneumoniae; experiment: Antimicrobial activity against carbapenemases KPC-producing Klebsiella pneumoniae VA-406 infected in sc dosed CD-1 mouse in presence of 4 ug/ml cavulanate beta-lactamase inhibitor
[4] = test system: Klebsiella pneumoniae; experiment: Antimicrobial activity against carbapenemases KPC-producing Klebsiella pneumoniae VA-406 infected in sc dosed CD-1 mouse
[5] = test system: Klebsiella pneumoniae; experiment: Antimicrobial activity against carbapenemases KPC-producing Klebsiella pneumoniae VA-361 infected in sc dosed CD-1 mouse
[6] = test system: Klebsiella pneumoniae; experiment: Antimicrobial activity against carbapenemases KPC-producing Klebsiella pneumoniae VA-361 infected in sc dosed CD-1 mouse in presence of 2 ug/ml NXL104 beta-lactamase inhibitor
[7] = test system: Klebsiella pneumoniae; experiment: Antimicrobial activity against carbapenemases KPC-producing Klebsiella pneumoniae VA-406 infected in sc dosed CD-1 mouse in presence of 2 ug/ml NXL104 beta-lactamase inhibitor
[8] = test system: Klebsiella pneumoniae; experiment: Antimicrobial activity against carbapenemases KPC-producing Klebsiella pneumoniae VA-361 infected in sc dosed CD-1 mouse in presence of 1 ug/ml NXL104 beta-lactamase inhibitor
[9] = test system: Klebsiella pneumoniae; experiment: Antimicrobial activity against carbapenemases KPC-producing Klebsiella pneumoniae VA-361 infected in sc dosed CD-1 mouse in presence of 4 ug/ml cavulanate beta-lactamase inhibitor
[10] = test system: Klebsiella pneumoniae; experiment: Antimicrobial activity against carbapenemases KPC-producing Klebsiella pneumoniae VA-361 infected in sc dosed CD-1 mouse in presence of 4 ug/ml NXL104 beta-lactamase inhibitor
[11] = test system: Klebsiella pneumoniae; experiment: Antimicrobial activity against carbapenemases KPC-producing Klebsiella pneumoniae VA-406 infected in sc dosed CD-1 mouse in presence of 4 ug/ml Tazobactam beta-lactamase inhibitor
[12] = test system: Klebsiella pneumoniae; experiment: Antimicrobial activity against carbapenemases KPC-producing Klebsiella pneumoniae VA-361 infected in sc dosed CD-1 mouse in presence of 4 ug/ml Tazobactam beta-lactamase inhibitor
[13] = test system: Klebsiella pneumoniae; experiment: Antimicrobial activity against carbapenemases KPC-producing Klebsiella pneumoniae VA-406 infected in sc dosed CD-1 mouse septicemia infection model at 16:1 compound to NXL104 beta-lactamase inhibitor ratio by acute lethal septicemia analysis; conditions: VA-406, sc
[14] = test system: Klebsiella pneumoniae; experiment: Antimicrobial activity against carbapenemases KPC-producing Klebsiella pneumoniae VA-406 infected in sc dosed CD-1 mouse septicemia infection model by acute lethal septicemia analysis; conditions: VA-406, sc
[15] = test system: Klebsiella pneumoniae; experiment: (§1) Antimicrobial activity against carbapenemases KPC-producing Klebsiella pneumoniae VA-406 infected in CD-1 mouse thigh infection model assessed as change in log10 CFU reduction per thigh treated 1.5 hr post infection at >=256:64 mg/kg, sc compound to NXL104 beta-lactamase inhibitor ratio after 24 hrs by acute lethal septicemia analysis (reference value: 8.67 log10CFU/thigh)
[16] = test system: Klebsiella pneumoniae; experiment: as §1, with “VA-361” for “VA-406”, “>=32:8” for “>=256:64”, “8.93” for “8.67”
[17] = test system: Klebsiella pneumoniae; experiment: Antimicrobial activity against carbapenemases KPC-producing Klebsiella pneumoniae VA-406 infected in sc dosed CD-1 mouse septicemia infection model at 2:1 compound to NXL104 beta-lactamase inhibitor ratio by acute lethal septicemia analysis; conditions: VA-406, sc
[18] = test system: Klebsiella pneumoniae; experiment: Antimicrobial activity against carbapenemases KPC-producing Klebsiella pneumoniae VA-361 infected in sc dosed CD-1 mouse septicemia infection model at 16:1 compound to NXL104 beta-lactamase inhibitor ratio by acute lethal septicemia analysis; conditions: VA-361, sc
[19] = test system: Klebsiella pneumoniae; experiment: as §1, with “VA-361” for “VA-406”, “>=64:16” for “>=256:64”, “8.93” for “8.67”
[20] = test system: Klebsiella pneumoniae; experiment: as §1, with “VA-361” for “VA-406”, “8.93” for “8.67”
[21] = test system: Klebsiella pneumoniae; experiment: as §1, with “>=1024:256” for “>=256:64”
[22] = test system: Klebsiella pneumoniae; experiment: Antimicrobial activity against carbapenemases KPC-producing Klebsiella pneumoniae VA-361 infected in sc dosed CD-1 mouse septicemia infection model at 2:1 compound to NXL104 beta-lactamase inhibitor ratio by acute lethal septicemia analysis; conditions: VA-361, sc
[23] = test system: Klebsiella pneumoniae; experiment: Antimicrobial activity against carbapenemases KPC-producing Klebsiella pneumoniae VA-361 infected in sc dosed CD-1 mouse septicemia infection model at 8:1 compound to NXL104 beta-lactamase inhibitor ratio by acute lethal septicemia analysis; conditions: VA-361, sc
[24] = test system: Klebsiella pneumoniae; experiment: Antimicrobial activity against carbapenemases KPC-producing Klebsiella pneumoniae VA-406 infected in sc dosed CD-1 mouse septicemia infection model at 4:1 compound to NXL104 beta-lactamase inhibitor ratio by acute lethal septicemia analysis; conditions: VA-406, sc
[25] = test system: Klebsiella pneumoniae; experiment: as §1, with “>=32:8” for “>=256:64”
[26] = test system: Klebsiella pneumoniae; experiment: Antimicrobial activity against Klebsiella pneumoniae ATCC 13883 infected in sc dosed CD-1 mouse septicemia infection model at 8:1 compound to NXL104 beta-lactamase inhibitor ratio by acute lethal septicemia analysis; conditions: ATCC 13883, sc
[27] = test system: Klebsiella pneumoniae; experiment: as §1, with “>=16:4” for “>=256:64”
[28] = test system: Klebsiella pneumoniae; experiment: Antimicrobial activity against carbapenemases KPC-producing Klebsiella pneumoniae VA-361 infected in sc dosed CD-1 mouse septicemia infection model at 4:1 compound to NXL104 beta-lactamase inhibitor ratio by acute lethal septicemia analysis; conditions: VA-361, sc
[29] = test system: Klebsiella pneumoniae; experiment: as §1, with “VA-361” for “VA-406”, “>=512:128” for “>=256:64”, “8.93” for “8.67”
[30] = test system: Klebsiella pneumoniae; experiment: Antimicrobial activity against Klebsiella pneumoniae ATCC 13883 infected in sc dosed CD-1 mouse septicemia infection model at 4:1 compound to NXL104 beta-lactamase inhibitor ratio by acute lethal septicemia analysis; conditions: ATCC 13883, sc
[31] = test system: Klebsiella pneumoniae; experiment: as §1, with “>=128:32” for “>=256:64”
[32] = test system: Klebsiella pneumoniae; experiment: Antimicrobial activity against carbapenemases KPC-producing Klebsiella pneumoniae VA-406 infected in sc dosed CD-1 mouse septicemia infection model at 8:1 compound to NXL104 beta-lactamase inhibitor ratio by acute lethal septicemia analysis; conditions: VA-406, sc
[33] = test system: Klebsiella pneumoniae; experiment: as §1, with “VA-361” for “VA-406”, “>=128:32” for “>=256:64”, “8.93” for “8.67”
[34] = test system: Klebsiella pneumoniae; experiment: Antimicrobial activity against Klebsiella pneumoniae ATCC 13883 infected in sc dosed CD-1 mouse septicemia infection model at 2:1 compound to NXL104 beta-lactamase inhibitor ratio by acute lethal septicemia analysis; conditions: ATCC 13883, sc
[35] = test system: Klebsiella pneumoniae; experiment: Antimicrobial activity against carbapenemases KPC-producing Klebsiella pneumoniae VA-361 infected in sc dosed CD-1 mouse septicemia infection model by acute lethal septicemia analysis; conditions: VA-361, sc
[36] = test system: Klebsiella pneumoniae; experiment: as §1, with “>=64:16” for “>=256:64”, “analysis” for “analysis (reference value: 8.67 log10CFU/thigh)”
[37] = test system: Klebsiella pneumoniae; experiment: Antimicrobial activity against Klebsiella pneumoniae ATCC 13883 infected in sc dosed CD-1 mouse septicemia infection model by acute lethal septicemia analysis; conditions: ATCC 13883, sc
[38] = test system: Klebsiella pneumoniae; experiment: as §1, with “>=512:128” for “>=256:64”
[39] = test system: Klebsiella pneumoniae; experiment: as §1, with “2048” for “>=256:64”, “sc” for “sc compound to NXL104 beta-lactamase inhibitor ratio”; conditions: route subcutaneous
[40] = test system: Klebsiella pneumoniae; experiment: as §1, with “VA-361” for “VA-406”, “2048” for “>=256:64”, “sc” for “sc compound to NXL104 beta-lactamase inhibitor ratio”, “8.93” for “8.67”; conditions: route subcutaneous
[41] = test system: Klebsiella pneumoniae; experiment: as §1, with “1024” for “>=256:64”, “sc” for “sc compound to NXL104 beta-lactamase inhibitor ratio”; conditions: route subcutaneous
[42] = test system: Klebsiella pneumoniae; experiment: as §1, with “VA-361” for “VA-406”, “>=1024:256” for “>=256:64”, “8.93” for “8.67”
[43] = test system: Klebsiella pneumoniae; experiment: as §1, with “>=8:2” for “>=256:64”
[44] = test system: Klebsiella pneumoniae; experiment: as §1, with “VA-361” for “VA-406”, “1024” for “>=256:64”, “sc” for “sc compound to NXL104 beta-lactamase inhibitor ratio”, “8.93” for “8.67”; conditions: route subcutaneous

CO/N=C(\C(=O)N[C@@H]1C(=O)N2C(C(=O)[O-])=C(C[N+]3(C)CCCC3)CS[C@H]12)c1csc(N)n1 [CEFEPIME]
MIC [1]: 0.5 µg/mL | MIC [2]: 0.125 µg/mL | MIC [3]: 128 µg/mL | MIC [4]: 256 µg/mL (≈ 533 µM) | MIC [5]: 32 µg/mL (≈ 66.6 µM) | MIC [6]: 0.25 µg/mL | MIC [7]: 0.5 µg/mL | MIC [8]: 0.5 µg/mL | MIC [9]: 8 µg/mL | MIC [10]: ≤ 0.06 µg/mL | MIC [11]: 128 µg/mL

CO/N=C(\C(=O)N[C@@H]1C(=O)N2C(C(=O)O)=C(COC(C)=O)CS[C@H]12)c1csc(N)n1 [CEFOTAXIME]
MIC [1]: 0.5 µg/mL | MIC [2]: 0.125 µg/mL | MIC [3]: 256 µg/mL | MIC [4]: ≥ 512 µg/mL | MIC [5]: 64 µg/mL (≈ 141 µM) | MIC [6]: 0.5 µg/mL | MIC [7]: 0.5 µg/mL | MIC [8]: 0.5 µg/mL | MIC [9]: 16 µg/mL | MIC [12]: 16 µg/mL | MIC [10]: 0.125 µg/mL | MIC [11]: 256 µg/mL

CC(C)(O/N=C(\C(=O)N[C@@H]1C(=O)N2C(C(=O)[O-])=C(C[n+]3ccccc3)CS[C@H]12)c1csc(N)n1)C(=O)O [CEFTAZIDIME]
ED50 [13]: 12.1 mg/kg | MIC [1]: 8 µg/mL | ED50 [14]: 709 mg/kg | log10cfu [15]: -1.02 | log10cfu [16]: 2.32 | ED50 [17]: 3.5 mg/kg | MIC [2]: ≤ 0.06 µg/mL | ED50 [18]: 29.5 mg/kg | log10cfu [19]: 2.19 | log10cfu [20]: -0.85 | MIC [3]: 256 µg/mL | MIC [4]: ≥ 512 µg/mL | log10cfu [21]: -1.59 | ED50 [22]: 8.1 mg/kg | MIC [5]: 256 µg/mL (≈ 468 µM) | ED50 [23]: 16.9 mg/kg | ED50 [24]: 3.8 mg/kg | log10cfu [25]: 2.33 | ED50 [26]: 0.62 mg/kg | MIC [6]: 4 µg/mL | log10cfu [27]: 2.69 | ED50 [28]: 15.1 mg/kg | MIC [7]: 2 µg/mL | MIC [8]: 8 µg/mL | log10cfu [29]: -1.47 | ED50 [30]: 1.1 mg/kg | log10cfu [31]: -0.46 | ED50 [32]: 7.2 mg/kg | log10cfu [33]: 1.88 | ED50 [34]: 1 mg/kg | MIC [9]: 128 µg/mL | MIC [12]: 128 µg/mL | ED50 [35]: 1580 mg/kg | log10cfu [36]: 2.06 | MIC [10]: 0.25 µg/mL | ED50 [37]: 1.9 mg/kg | log10cfu [38]: -1.03 | MIC [11]: 256 µg/mL

C[C@@H](O)[C@H]1C(=O)N2C(C(=O)O)=C(SCCNC=N)C[C@H]12 [IMIPENEM ANHYDROUS]
MIC [3]: 128 µg/mL | MIC [4]: 256 µg/mL (≈ 855 µM) | MIC [5]: 4 µg/mL (≈ 13.4 µM) | MIC [9]: 2 µg/mL | MIC [12]: 4 µg/mL | MIC [11]: 256 µg/mL

C[C@@H](O)[C@H]1C(=O)N2C(C(=O)O)=C(S[C@@H]3CN[C@H](C(=O)N(C)C)C3)[C@H](C)[C@H]12 [MEROPENEM]
MIC [3]: 128 µg/mL | MIC [4]: 256 µg/mL (≈ 668 µM) | MIC [5]: 4 µg/mL (≈ 10.4 µM) | MIC [9]: 2 µg/mL | MIC [12]: 4 µg/mL | MIC [11]: 128 µg/mL

CCN1CCN(C(=O)N[C@@H](C(=O)N[C@@H]2C(=O)N3[C@@H]2SC(C)(C)[C@@H]3C(=O)O)c2ccccc2)C(=O)C1=O [PIPERACILLIN]
log10cfu [39]: 0.03 | MIC [1]: 16 µg/mL | log10cfu [40]: -0.34 | MIC [2]: 0.5 µg/mL | MIC [4]: ≥ 512 µg/mL | MIC [5]: ≥ 512 µg/mL | log10cfu [41]: 0.25 | MIC [6]: 8 µg/mL | log10cfu [42]: -1.76 | MIC [7]: 8 µg/mL | log10cfu [43]: 2.93 | MIC [8]: 32 µg/mL | log10cfu [44]: -0.32 | MIC [12]: ≥ 512 µg/mL | MIC [10]: ≤ 0.06 µg/mL | MIC [11]: ≥ 512 µg/mL
